{"source": "paper PMC10974167", "about": "(Toxins, 2024)", "key": {"[1]": {"design": "method as in PMID 22488789", "settings": "cited from earlier work"}, "[2]": {"format": "binding", "settings": "pH 8"}}, "data": [{"substance": "cholera toxin B-subunit [Wild-type]", "values": [{"measurement": "Lewis-y glycan binding (result in words)", "setting": "[1]", "result": "very low affinity"}, {"measurement": "Kd", "setting": "[2]", "result": "43 ± 8", "unit": "nM"}]}]}
